From the supplement of paper PMC10307832

What was measured:
Test in all cases: relative viability (nuclei count vs DMSO), 5 days (fraction); higher = more cells survive
[1] = compound: CN(c1ncccc1CNc1nc(Nc2ccc3c(c2)CC(=O)N3)ncc1C(F)(F)F)S(C)(=O)=O + NC(=O)Nc1cc(-c2cccc(F)c2)sc1C(=O)N[C@H]1CCCNC1 [AZD7762] (partner 0.2 µM)
Outline: (§1)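 Relative viability is defined as nuclei in treated wells over nuclei in vehicle wells. Duplicate plates were run and medians reported. Lung cancer cell lines in 1536-well plates were dosed by pin tool one day after seeding, with one drug or with a fixed anchor-drug dose plus five library-drug doses (not always all listed) in √10 steps, and nuclei were counted after 5 days.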

[2] = compound: CN(c1ncccc1CNc1nc(Nc2ccc3c(c2)CC(=O)N3)ncc1C(F)(F)F)S(C)(=O)=O + CC(C)C[C@H](NC(=O)[C@H](Cc1ccccc1)NC(=O)c1cnccn1)B(O)O [Bortezomib] (partner 0.002 µM)
Outline: as §1

[3] = compound: CN(c1ncccc1CNc1nc(Nc2ccc3c(c2)CC(=O)N3)ncc1C(F)(F)F)S(C)(=O)=O + CS(=O)(=O)N1CCN(Cc2cc3nc(-c4cccc5[nH]ncc45)nc(N4CCOCC4)c3s2)CC1 [Pictilisib] (partner 1 µM)
Outline: as §1

[4] = compound: CN(c1ncccc1CNc1nc(Nc2ccc3c(c2)CC(=O)N3)ncc1C(F)(F)F)S(C)(=O)=O + C[C@]1(O)C[C@@H](c2nc(-c3ccc4ccc(-c5ccccc5)nc4c3)c3c(N)nccn32)C1 [Linsitinib] (partner 1 µM)
Outline: as §1

[5] = compound: CN(c1ncccc1CNc1nc(Nc2ccc3c(c2)CC(=O)N3)ncc1C(F)(F)F)S(C)(=O)=O + O=C(c1cc(Cc2n[nH]c(=O)c3ccccc23)ccc1F)N1CCN(C(=O)C2CC2)CC1 [Olaparib] (partner 8 µM)
Outline: as §1

[6] = compound: CN(c1ncccc1CNc1nc(Nc2ccc3c(c2)CC(=O)N3)ncc1C(F)(F)F)S(C)(=O)=O + C[C@@H](Oc1cc(-c2cnn(C3CCNCC3)c2)cnc1N)c1c(Cl)ccc(F)c1Cl [Crizotinib] (partner 1 µM)
Outline: as §1

[7] = compound: CN(c1ncccc1CNc1nc(Nc2ccc3c(c2)CC(=O)N3)ncc1C(F)(F)F)S(C)(=O)=O + CC1(C)CCC(c2ccc(Cl)cc2)=C(CN2CCN(c3ccc(C(=O)NS(=O)(=O)c4ccc(N[C@H](CCN5CCOCC5)CSc5ccccc5)c(S(=O)(=O)C(F)(F)F)c4)cc3)CC2)C1 [Navitoclax] (partner 0.5 µM)
Outline: as §1

[8] = compound: CN(c1ncccc1CNc1nc(Nc2ccc3c(c2)CC(=O)N3)ncc1C(F)(F)F)S(C)(=O)=O + COc1cc2c(Oc3ccc(NC(=O)C4(C(=O)Nc5ccc(F)cc5)CC4)cc3F)ccnc2cc1OCCCN1CCOCC1 [Foretinib] (partner 0.25 µM)
Outline: as §1

[9] = compound: CN(c1ncccc1CNc1nc(Nc2ccc3c(c2)CC(=O)N3)ncc1C(F)(F)F)S(C)(=O)=O + Cc1nc(NC(=O)N2CCC[C@H]2C(N)=O)sc1-c1ccnc(C(C)(C)C(F)(F)F)c1 [Alpelisib] (partner 2 µM)
Outline: as §1

[10] = compound: CN(c1ncccc1CNc1nc(Nc2ccc3c(c2)CC(=O)N3)ncc1C(F)(F)F)S(C)(=O)=O + CS(=O)(=O)CCNCc1ccc(-c2ccc3ncnc(Nc4ccc(OCc5cccc(F)c5)c(Cl)c4)c3c2)o1 [Lapatinib] (partner 2 µM)
Outline: as §1

[11] = compound: CN(c1ncccc1CNc1nc(Nc2ccc3c(c2)CC(=O)N3)ncc1C(F)(F)F)S(C)(=O)=O
Outline: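 MetaXpress counted nuclei in 4× images of lung cancer cell lines that had been fixed, permeabilised and Hoechst-stained in one step. Before that, cells in 1536-well plates were kept overnight at 37 °C, pinned with five √10-spaced library-drug doses on vehicle-anchored plates, and cultured 5 days without medium change. Viability takes treated-well nuclei over vehicle-well nuclei and uses the median across plates. Plates were accepted only at control CV below 25% and at least one doubling.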

## NCI-H1703
[1]; first compound 0.01 µM
  relative viability: 0.131
[1]; first compound 0.03162 µM
  relative viability: 0.18
[1]; first compound 0.1 µM
  relative viability: 0.124
[1]; first compound 0.3162 µM
  relative viability: 0.127
[1]; first compound 1 µM
  relative viability: 0.118
[2]; first compound 0.01 µM
  relative viability: 0.311
[2]; first compound 0.03162 µM
  relative viability: 0.295
[2]; first compound 0.1 µM
  relative viability: 0.415
[2]; first compound 0.3162 µM
  relative viability: 0.481
[2]; first compound 1 µM
  relative viability: 0.235
[3]; first compound 0.01 µM
  relative viability: 0.266
[3]; first compound 0.03162 µM
  relative viability: 0.243
[3]; first compound 0.1 µM
  relative viability: 0.248
[3]; first compound 0.3162 µM
  relative viability: 0.229
[3]; first compound 1 µM
  relative viability: 0.235
[4]; first compound 0.01 µM
  relative viability: 0.692
[4]; first compound 0.03162 µM
  relative viability: 0.647
[4]; first compound 0.1 µM
  relative viability: 0.756
[4]; first compound 0.3162 µM
  relative viability: 0.836
[4]; first compound 1 µM
  relative viability: 0.637
[5]; first compound 0.01 µM
  relative viability: 0.393
[5]; first compound 0.03162 µM
  relative viability: 0.388
[5]; first compound 0.1 µM
  relative viability: 0.368
[5]; first compound 0.3162 µM
  relative viability: 0.526
[5]; first compound 1 µM
  relative viability: 0.389
[6]; first compound 0.01 µM
  relative viability: 0.586
[6]; first compound 0.03162 µM
  relative viability: 0.678
[6]; first compound 0.1 µM
  relative viability: 1.15
[6]; first compound 0.3162 µM
  relative viability: 0.986
[6]; first compound 1 µM
  relative viability: 0.417
[7]; first compound 0.01 µM
  relative viability: 0.951
[7]; first compound 0.03162 µM
  relative viability: 1.12
[7]; first compound 0.1 µM
  relative viability: 1.03
[7]; first compound 0.3162 µM
  relative viability: 1.11
[7]; first compound 1 µM
  relative viability: 1.02
[8]; first compound 0.01 µM
  relative viability: 0.37
[8]; first compound 0.03162 µM
  relative viability: 0.3
[8]; first compound 0.1 µM
  relative viability: 0.36
[8]; first compound 0.3162 µM
  relative viability: 0.332
[8]; first compound 1 µM
  relative viability: 0.349
[9]; first compound 0.01 µM
  relative viability: 0.329
[9]; first compound 0.03162 µM
  relative viability: 0.419
[9]; first compound 0.1 µM
  relative viability: 0.321
[9]; first compound 0.3162 µM
  relative viability: 0.345
[9]; first compound 1 µM
  relative viability: 0.294
[10]; first compound 0.01 µM
  relative viability: 1.05
[10]; first compound 0.03162 µM
  relative viability: 1.13
[10]; first compound 0.1 µM
  relative viability: 1.27
[10]; first compound 0.3162 µM
  relative viability: 1.41
[10]; first compound 1 µM
  relative viability: 1.01
[11]; 0.01 µM
  relative viability: 0.955
[11]; 0.03162 µM
  relative viability: 0.931
[11]; 0.1 µM
  relative viability: 0.861
[11]; 0.3162 µM
  relative viability: 1.08
[11]; 1 µM
  relative viability: 0.905
